Measurements from ChEMBL document CHEMBL2429805, “Studies toward the development of new silicon-containing building blocks for the direct (18)F-labeling of peptides” (J Med Chem, 2013).

Tests used:
Mus musculus [1] = assay: Biodistribution in abdominal region of NMRI nude mouse xenografted with human PC3 cells at 3.6 to 5.1 MBq after 62 to 170 mins by PET imaging analysis; assay type: ADME, organism-based, Abdomen, PC-3; settings: in vivo
[2] = Ratio of biodistribution in tumor to muscle of NMRI nude mouse xenografted with human PC3 cells after 182 mins by gamma-counting analysis; assay type: ADME, organism-based, PC-3; settings: in vivo
[3] = Ratio of biodistribution in tumor to blood of NMRI nude mouse xenografted with human PC3 cells after 182 mins by gamma-counting analysis; assay type: ADME, organism-based, PC-3; settings: tumour
Stomach [4] = assay: Biodistribution in stomach of NMRI nude mouse xenografted with human PC3 cells after 182 mins by gamma-counting analysis; assay type: ADME, organism-based, PC-3; settings: in vivo
Bone [5] = assay: Biodistribution in bone of NMRI nude mouse xenografted with human PC3 cells after 182 mins by gamma-counting analysis; assay type: ADME, organism-based, Bone element, PC-3; settings: in vivo
Mus musculus [6] = assay: Biodistribution in adrenal gland of NMRI nude mouse xenografted with human PC3 cells after 182 mins by gamma-counting analysis; assay type: ADME, organism-based, PC-3; settings: in vivo
[7] = Biodistribution in fat of NMRI nude mouse xenografted with human PC3 cells after 182 mins by gamma-counting analysis; assay type: ADME, organism-based, Adipose tissue, PC-3; settings: in vivo
Muscle tissue [8] = assay: Biodistribution in muscle of NMRI nude mouse xenografted with human PC3 cells after 182 mins by gamma-counting analysis; assay type: ADME, organism-based, PC-3; settings: in vivo
Heart [9] = assay: Biodistribution in heart of NMRI nude mouse xenografted with human PC3 cells after 182 mins by gamma-counting analysis; assay type: ADME, organism-based, PC-3; settings: in vivo
Spleen [10] = assay: Biodistribution in spleen of NMRI nude mouse xenografted with human PC3 cells after 182 mins by gamma-counting analysis; assay type: ADME, organism-based, PC-3; settings: in vivo
[11] = Biodistribution in urine of NMRI nude mouse xenografted with human PC3 cells after 182 mins by gamma-counting analysis; assay type: ADME, organism-based, PC-3; settings: in vivo
Mus musculus [12] = assay: Biodistribution in gallbladder of NMRI nude mouse xenografted with human PC3 cells after 182 mins by gamma-counting analysis; assay type: ADME, organism-based, Gall bladder, PC-3; settings: in vivo
Lung [13] = assay: Biodistribution in lung of NMRI nude mouse xenografted with human PC3 cells after 182 mins by gamma-counting analysis; assay type: ADME, organism-based, PC-3; settings: in vivo
Intestine [14] = assay: Biodistribution in intestine of NMRI nude mouse xenografted with human PC3 cells after 182 mins by gamma-counting analysis; assay type: ADME, organism-based, PC-3; settings: in vivo
Kidney [15] = assay: Biodistribution in kidney of NMRI nude mouse xenografted with human PC3 cells after 182 mins by gamma-counting analysis; assay type: ADME, organism-based, PC-3; settings: in vivo
Liver [16] = assay: Biodistribution in liver of NMRI nude mouse xenografted with human PC3 cells after 182 mins by gamma-counting analysis; assay type: ADME, organism-based, PC-3; settings: in vivo
Mus musculus [17] = assay: Biodistribution in prostate of NMRI nude mouse xenografted with human PC3 cells after 182 mins by gamma-counting analysis; assay type: ADME, organism-based, Prostate gland, PC-3; settings: in vivo
Pancreas [18] = assay: Biodistribution in pancreas of NMRI nude mouse xenografted with human PC3 cells after 182 mins by gamma-counting analysis; assay type: ADME, organism-based, PC-3; settings: in vivo
Blood [19] = assay: Biodistribution in blood of NMRI nude mouse xenografted with human PC3 cells after 182 mins by gamma-counting analysis; assay type: ADME, organism-based, PC-3; settings: in vivo
Mus musculus [20] = assay: Biodistribution in tumor of NMRI nude mouse xenografted with human PC3 cells after 182 mins by gamma-counting analysis; assay type: ADME, organism-based, Neoplasm, PC-3; settings: in vivo
[21] = Ratio of biodistribution in tumor to muscle of NMRI nude mouse xenografted with human PC3 cells after 104 mins by gamma-counting analysis; assay type: ADME, organism-based, PC-3; settings: in vivo
[22] = Ratio of biodistribution in tumor to blood of NMRI nude mouse xenografted with human PC3 cells after 104 mins by gamma-counting analysis; assay type: ADME, organism-based, PC-3; settings: tumour
Stomach [23] = assay: Biodistribution in stomach of NMRI nude mouse xenografted with human PC3 cells after 104 mins by gamma-counting analysis; assay type: ADME, organism-based, PC-3; settings: in vivo
Bone [24] = assay: Biodistribution in bone of NMRI nude mouse xenografted with human PC3 cells after 104 mins by gamma-counting analysis; assay type: ADME, organism-based, Bone element, PC-3; settings: in vivo
Mus musculus [25] = assay: Biodistribution in adrenal gland of NMRI nude mouse xenografted with human PC3 cells after 104 mins by gamma-counting analysis; assay type: ADME, organism-based, PC-3; settings: in vivo
Muscle tissue [26] = assay: Biodistribution in muscle of NMRI nude mouse xenografted with human PC3 cells after 104 mins by gamma-counting analysis; assay type: ADME, organism-based, PC-3; settings: in vivo
[27] = Biodistribution in fat of NMRI nude mouse xenografted with human PC3 cells after 104 mins by gamma-counting analysis; assay type: ADME, organism-based, Adipose tissue, PC-3; settings: in vivo
Heart [28] = assay: Biodistribution in heart of NMRI nude mouse xenografted with human PC3 cells after 104 mins by gamma-counting analysis; assay type: ADME, organism-based, PC-3; settings: in vivo
Spleen [29] = assay: Biodistribution in spleen of NMRI nude mouse xenografted with human PC3 cells after 104 mins by gamma-counting analysis; assay type: ADME, organism-based, PC-3; settings: in vivo
[30] = Biodistribution in urine of NMRI nude mouse xenografted with human PC3 cells after 104 mins by gamma-counting analysis; assay type: ADME, organism-based, PC-3; settings: in vivo
Mus musculus [31] = assay: Biodistribution in gallbladder of NMRI nude mouse xenografted with human PC3 cells after 104 mins by gamma-counting analysis; assay type: ADME, organism-based, Gall bladder, PC-3; settings: in vivo
Lung [32] = assay: Biodistribution in lung of NMRI nude mouse xenografted with human PC3 cells after 104 mins by gamma-counting analysis; assay type: ADME, organism-based, PC-3; settings: in vivo
Intestine [33] = assay: Biodistribution in intestine of NMRI nude mouse xenografted with human PC3 cells after 104 mins by gamma-counting analysis; assay type: ADME, organism-based, PC-3; settings: in vivo
Kidney [34] = assay: Biodistribution in kidney of NMRI nude mouse xenografted with human PC3 cells after 104 mins by gamma-counting analysis; assay type: ADME, organism-based, PC-3; settings: in vivo
Liver [35] = assay: Biodistribution in liver of NMRI nude mouse xenografted with human PC3 cells after 104 mins by gamma-counting analysis; assay type: ADME, organism-based, PC-3; settings: in vivo
Mus musculus [36] = assay: Biodistribution in prostate of NMRI nude mouse xenografted with human PC3 cells after 104 mins by gamma-counting analysis; assay type: ADME, organism-based, Prostate gland, PC-3; settings: in vivo
Pancreas [37] = assay: Biodistribution in pancreas of NMRI nude mouse xenografted with human PC3 cells after 104 mins by gamma-counting analysis; assay type: ADME, organism-based, PC-3; settings: in vivo
Blood [38] = assay: Biodistribution in blood of NMRI nude mouse xenografted with human PC3 cells after 104 mins by gamma-counting analysis; assay type: ADME, organism-based, PC-3; settings: in vivo
Mus musculus [39] = assay: Biodistribution in tumor of NMRI nude mouse xenografted with human PC3 cells after 104 mins by gamma-counting analysis; assay type: ADME, organism-based, Neoplasm, PC-3; settings: in vivo
Mus musculus [40] = assay: Biodistribution in tumor of NMRI nude mouse xenografted with human PC3 cells at 3.6 to 5.1 MBq after 62 to 170 mins by PET imaging analysis; assay type: ADME, organism-based, Neoplasm, PC-3; settings: in vivo
[41] = Stability of the compound in PBS buffer up to 2 hrs; assay type: physicochemical

CC(C)C[C@H](NC(=O)C[C@H](O)[C@H](CC(C)C)NC(=O)[C@H](Cc1cnc[nH]1)NC(=O)CN(C)C(=O)[C@@H](NC(=O)[C@H](C)NC(=O)[C@H](Cc1c[nH]c2ccccc12)NC(=O)[C@H](CCC(N)=O)NC(=O)CCCCNC(=O)[C@H](CS(=O)(=O)O)NC(=O)[C@H](CS(=O)(=O)O)NC(=O)C(O)C(O)C(=O)NCCc1ccc([Si]([18F])(C(C)(C)C)C(C)(C)C)cc1)C(C)C)C(N)=O (stereo partly specified)
Drug uptake (Mus musculus [1]): Not Active
Ratio [2]: 8.41
Ratio [3]: 0.95
Drug uptake (Stomach [4]): 0.8 % ID/g
Drug uptake (Bone [5]): 0.92 % ID/g
Drug uptake (Mus musculus [6]): 2.07 % ID/g
Drug uptake [7]: 0.51 % ID/g
Drug uptake (Muscle tissue [8]): 0.29 % ID/g
Drug uptake (Heart [9]): 0.85 % ID/g
Drug uptake (Spleen [10]): 1.32 % ID/g
Drug uptake [11]: 20 % ID/g
Drug uptake (Mus musculus [12]): 128 % ID/g
Drug uptake (Lung [13]): 1.94 % ID/g
Drug uptake (Intestine [14]): 9.5 % ID/g
Drug uptake (Kidney [15]): 4.1 % ID/g
Drug uptake (Liver [16]): 13 % ID/g
Drug uptake (Mus musculus [17]): 0.29 % ID/g
Drug uptake (Pancreas [18]): 21 % ID/g
Drug uptake (Blood [19]): 2.58 % ID/g
Drug uptake (Mus musculus [20]): 2.44 % ID/g
Ratio [21]: 5.03
Ratio [22]: 0.65
Drug uptake (Stomach [23]): 0.42 % ID/g
Drug uptake (Bone [24]): 1.09 % ID/g
Drug uptake (Mus musculus [25]): 5.01 % ID/g
Drug uptake (Muscle tissue [26]): 0.69 % ID/g
Drug uptake [27]: 1.24 % ID/g
Drug uptake (Heart [28]): 1.37 % ID/g
Drug uptake (Spleen [29]): 2.15 % ID/g
Drug uptake [30]: 25 % ID/g
Drug uptake (Mus musculus [31]): 36 % ID/g
Drug uptake (Lung [32]): 4.2 % ID/g
Drug uptake (Intestine [33]): 12.6 % ID/g
Drug uptake (Kidney [34]): 6 % ID/g
Drug uptake (Liver [35]): 25 % ID/g
Drug uptake (Mus musculus [36]): 0.44 % ID/g
Drug uptake (Pancreas [37]): 46 % ID/g
Drug uptake (Blood [38]): 5.37 % ID/g
Drug uptake (Mus musculus [39]): 3.47 % ID/g
Drug uptake (Mus musculus [40]): Active
Stability [41]: Stable
